Reference: patent publication US10508309B2, “Methods for detecting and treating variants of seborrheic keratoses” (THE GENERAL HOSPITAL CORPORATION, priority 2013, dated 2019)

System: SK
Test: Response to A44/puro (summary of features for KA, SK, and SCC)
Conditions: seborrheic keratosis (SK) column; the KA and SCC cells print "?"

Structure (SMILES): COc1ccc(C[C@H](N)C(=O)N[C@H]2[C@@H](O)[C@H](n3cnc4c(N(C)C)ncnc43)O[C@@H]2CO)cc1 [puro, puromycin]
- Response to A44/puro?: Yes
